Laboratory results reported in ChEMBL document CHEMBL1136670, “Synthesis of quinolinyl/isoquinolinyl[a]pyrrolo [3,4-c] carbazoles as cyclin D1/CDK4 inhibitors” (Bioorg Med Chem Lett, 2003).
pIC50: −log10 of the molar value.

Legend:
[1] = biological target: Cyclin-dependent kinase 4/cyclin D1 (Homo sapiens, UniProt P11802); assay: Inhibitory activity against cyclin D1/ (cyclin dependent kinase) CDK4; assay type: protein-complex assay
HCT-116 = assay: Inhibition of human colon carcinoma (HCT116) cell proliferation; assay type: functional, cell-based
NCI-H460 = assay: Inhibition of non-small cell lung carcinoma (NCI-460) cell proliferation; assay type: functional, cell-based; settings: Homo sapiens

Chain of Cyclin-dependent kinase 4/cyclin D1 (P11802 whole entry): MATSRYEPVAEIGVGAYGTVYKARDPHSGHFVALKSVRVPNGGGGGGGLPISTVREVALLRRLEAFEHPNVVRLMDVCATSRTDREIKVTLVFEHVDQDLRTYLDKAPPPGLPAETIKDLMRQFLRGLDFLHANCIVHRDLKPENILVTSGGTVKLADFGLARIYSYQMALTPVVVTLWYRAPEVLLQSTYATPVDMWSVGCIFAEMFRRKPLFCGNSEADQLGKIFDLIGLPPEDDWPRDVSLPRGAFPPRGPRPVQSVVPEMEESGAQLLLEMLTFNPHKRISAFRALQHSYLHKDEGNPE
Chain of Cyclin-dependent kinase 4/cyclin D1 (P24385 whole entry, further chain): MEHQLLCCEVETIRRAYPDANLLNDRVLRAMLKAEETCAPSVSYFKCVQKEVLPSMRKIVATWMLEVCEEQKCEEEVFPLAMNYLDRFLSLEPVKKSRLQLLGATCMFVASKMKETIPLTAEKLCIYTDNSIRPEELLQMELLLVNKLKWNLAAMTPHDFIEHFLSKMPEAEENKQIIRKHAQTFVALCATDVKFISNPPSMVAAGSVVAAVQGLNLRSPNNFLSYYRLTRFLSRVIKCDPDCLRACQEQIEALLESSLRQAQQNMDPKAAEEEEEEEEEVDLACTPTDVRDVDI

| Compound | pIC50 [1] | pIC50 (HCT-116) | pIC50 (NCI-H460) |
| --- | --- | --- | --- |
| O=C1NC(=O)c2c1c1c(ccc3cccnc31)c1[nH]c3ccccc3c21 | < 5.70 | 6.10 | 5.45 |
| O=C1NC(=O)c2c1c1c3ccccc3cnc1c1[nH]c3c(CCO)cccc3c21 | < 5.70 |  |  |
| O=C1NC(=O)c2c1c1c3ccccc3ncc1c1[nH]c3cc(Cl)ccc3c21 | < 5.70 | 6.19 | 6.35 |
| O=C1NC(=O)c2c1c1c3ccccc3cnc1c1c2c2ccccc2n1CCCO | < 5.70 | 6.80 | 6.39 |
| O=C1NC(=O)c2c1c1nc3ccccc3cc1c1[nH]c3ccccc3c21 | < 5.00 | 5.26 | 5.39 |
| O=C1NC(=O)c2c1c1c3cccnc3ccc1c1[nH]c3ccccc3c21 | < 6.70 | 6.37 | 5.72 |
| O=C1NC(=O)c2c1c1c3ccccc3cnc1c1[nH]c3ccccc3c21 | < 5.70 |  |  |
| O=C1NC(=O)c2c1c1cnc3ccccc3c1c1[nH]c3ccccc3c21 | < 5.00 | 5.71 | 6.03 |

Continued by rising pIC50 [1], values first:

| pIC50 [1] | pIC50 (HCT-116) | Compound | pIC50 (NCI-H460) |
| --- | --- | --- | --- |
| 5.92 |  | O=C1NC(=O)c2c1c1cnc3ccccc3c1c1c2c2ccccc2n1CCCO |  |
| 5.94 |  | O=C1NC(=O)c2c1c1c3ccccc3cnc1c1c2c2ccccc2n1CCCCO |  |
| 5.94 |  | CN(C)CCCCn1c2ccccc2c2c3c(c4c5ccccc5cnc4c21)C(=O)NC3=O |  |
| 6.17 | 6.41 | O=C1NC(=O)c2c1c1c3ccccc3ncc1c1[nH]c3ccccc3c21 | 6.18 |
| 6.68 |  | COc1ccc2c(c1)[nH]c1c3cnc4ccccc4c3c3c(c21)C(=O)NC3=O | 6.41 |
| 6.77 | 6.51 | CN(C)CCCn1c2ccccc2c2c3c(c4c5ccccc5cnc4c21)C(=O)NC3=O | 6.43 |
| 7.16 | 6.89 | O=C1NC(=O)c2c1c1c3ccncc3ccc1c1[nH]c3ccccc3c21 | 7.13 |
